Laboratory results reported in patent US11690845B2, “Methods of administering elagolix” (priority 2020, dated 2023).
Read-outs that look alike come from different tables or passages of the source.

Assays:
[1] = molecular target: T1, rat gonadotropin-releasing hormone (GnRH) receptor (Rattus norvegicus, UniProt P30969); assay: Binding to rat versus human GnRH receptor; conditions: rat vs human GnRH receptor
T1 sequence (P30969 1-327): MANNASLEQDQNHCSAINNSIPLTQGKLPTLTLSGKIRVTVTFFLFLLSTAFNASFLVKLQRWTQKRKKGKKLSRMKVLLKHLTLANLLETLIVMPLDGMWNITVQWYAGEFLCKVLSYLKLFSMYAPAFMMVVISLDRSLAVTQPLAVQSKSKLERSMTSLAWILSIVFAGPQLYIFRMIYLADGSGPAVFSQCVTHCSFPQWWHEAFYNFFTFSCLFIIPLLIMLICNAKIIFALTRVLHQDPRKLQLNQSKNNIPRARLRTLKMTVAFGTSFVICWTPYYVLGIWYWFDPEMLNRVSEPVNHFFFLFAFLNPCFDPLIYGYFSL

P-glycoprotein (P-gp) = P-glycoprotein (P-gp) (Homo sapiens, UniProt P08183); assay: Inhibition of efflux transporter P-gp; format: in vitro ADME
Chain of P-glycoprotein (P-gp) (P08183 whole entry): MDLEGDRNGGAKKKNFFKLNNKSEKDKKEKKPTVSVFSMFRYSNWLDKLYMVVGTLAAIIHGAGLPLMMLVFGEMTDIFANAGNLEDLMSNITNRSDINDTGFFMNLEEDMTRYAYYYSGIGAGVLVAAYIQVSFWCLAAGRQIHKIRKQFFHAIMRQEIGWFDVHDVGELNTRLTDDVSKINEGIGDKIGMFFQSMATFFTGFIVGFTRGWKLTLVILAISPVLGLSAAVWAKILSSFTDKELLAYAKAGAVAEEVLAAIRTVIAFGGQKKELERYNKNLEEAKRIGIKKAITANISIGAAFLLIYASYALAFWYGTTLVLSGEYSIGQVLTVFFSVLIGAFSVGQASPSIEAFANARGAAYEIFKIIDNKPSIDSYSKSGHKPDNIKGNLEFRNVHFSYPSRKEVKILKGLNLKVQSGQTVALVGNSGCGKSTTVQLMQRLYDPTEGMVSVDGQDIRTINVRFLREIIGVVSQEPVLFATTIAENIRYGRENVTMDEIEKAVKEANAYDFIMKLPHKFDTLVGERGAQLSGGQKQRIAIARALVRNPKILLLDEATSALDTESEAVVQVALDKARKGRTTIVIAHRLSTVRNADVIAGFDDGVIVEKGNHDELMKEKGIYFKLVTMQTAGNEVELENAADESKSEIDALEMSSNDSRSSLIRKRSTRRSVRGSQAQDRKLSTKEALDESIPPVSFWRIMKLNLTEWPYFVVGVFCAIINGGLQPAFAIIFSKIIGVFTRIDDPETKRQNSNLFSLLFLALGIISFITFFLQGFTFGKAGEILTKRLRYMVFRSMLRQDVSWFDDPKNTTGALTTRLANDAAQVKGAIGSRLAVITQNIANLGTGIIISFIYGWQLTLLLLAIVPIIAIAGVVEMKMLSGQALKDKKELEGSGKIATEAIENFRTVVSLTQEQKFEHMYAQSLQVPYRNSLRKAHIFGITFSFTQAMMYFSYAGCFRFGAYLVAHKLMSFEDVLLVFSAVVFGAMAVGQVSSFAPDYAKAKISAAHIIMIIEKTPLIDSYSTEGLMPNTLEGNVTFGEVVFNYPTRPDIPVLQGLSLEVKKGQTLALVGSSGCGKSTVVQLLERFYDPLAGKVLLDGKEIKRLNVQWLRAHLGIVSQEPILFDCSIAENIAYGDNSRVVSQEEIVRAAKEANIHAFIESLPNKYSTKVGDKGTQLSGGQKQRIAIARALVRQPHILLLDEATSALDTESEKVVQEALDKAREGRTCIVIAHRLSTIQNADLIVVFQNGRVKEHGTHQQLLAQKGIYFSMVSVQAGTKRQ

CYP3A4 = assay: In vitro studies: CYP3A4 (CYP3A) induction; format: in vitro ADME; conditions: in vitro studies (CYP3A4; b159: CYP3A)
OATP1B1 = molecular target: T2, OATP1B1 (Homo sapiens, UniProt Q9Y6L6); assay: Substrate of OATP1B1; format: in vitro ADME
T2 sequence (Q9Y6L6 1-691): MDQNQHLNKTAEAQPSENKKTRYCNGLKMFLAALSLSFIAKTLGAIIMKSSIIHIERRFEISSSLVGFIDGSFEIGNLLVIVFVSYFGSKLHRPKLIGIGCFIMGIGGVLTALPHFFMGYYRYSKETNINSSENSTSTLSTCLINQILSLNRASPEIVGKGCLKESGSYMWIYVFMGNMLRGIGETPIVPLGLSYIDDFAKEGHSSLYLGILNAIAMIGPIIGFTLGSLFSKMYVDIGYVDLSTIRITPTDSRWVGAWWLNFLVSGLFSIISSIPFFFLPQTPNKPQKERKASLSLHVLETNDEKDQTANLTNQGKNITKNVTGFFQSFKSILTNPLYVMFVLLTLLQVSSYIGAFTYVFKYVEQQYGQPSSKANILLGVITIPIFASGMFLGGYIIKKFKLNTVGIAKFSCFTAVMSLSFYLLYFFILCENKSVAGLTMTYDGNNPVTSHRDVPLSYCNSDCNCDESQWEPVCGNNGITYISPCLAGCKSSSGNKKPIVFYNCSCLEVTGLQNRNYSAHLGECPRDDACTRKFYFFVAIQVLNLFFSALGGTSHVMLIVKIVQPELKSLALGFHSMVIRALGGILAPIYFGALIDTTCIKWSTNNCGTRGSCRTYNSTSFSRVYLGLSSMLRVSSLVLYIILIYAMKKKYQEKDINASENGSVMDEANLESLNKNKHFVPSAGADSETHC

pregnant rats = assay: Embryofetal development study in the rat; format: in vivo
Experimental: (§2) Embryofetal development studies were conducted in the rat and rabbit. Elagolix was administered by oral gavage to pregnant rats (25 animals/dose) at doses of 0, 300, 600 and 1200 mg/kg/day and to rabbits (20 animals/dose) at doses of 0, 100, 150, and 200 mg/kg/day, during the period of organogenesis (gestation day 6-17 in the rat and gestation day 7-20 in the rabbit).

rabbits = assay: Embryofetal development study in the rabbit; format: in vivo
Experimental: as §2

rats = assay: Pre- and postnatal development study in rats; format: in vivo, rat; conditions: for maternal plasma concentration relative to maximal elagolix concentration (Cmax) in humans at the MRHD: rats
Experimental: (§1) In a pre- and postnatal development study in rats, elagolix was given in the diet to achieve doses of 0, 100 and 300 mg/kg/day (25 per dose group) from gestation day 6 to lactation day 20. […] Pup survival was decreased from birth to postnatal day 4. […] Smaller body size and effect on startle response were associated with lower pup weights at 300 mg/kg/day. Post-weaning growth, development and behavioral endpoints were unaffected.

[2] = Pre- and postnatal development study in rats; format: in vivo, rat; conditions: female, rat, plasma, oral, rats, read-out: maternal plasma concentration
Experimental: as §1

P-gp = P-gp (Homo sapiens, UniProt P08183); assay: Substrate of P-gp; format: in vitro ADME
Chain of P-gp (P08183 whole entry): as the sequence (P08183 whole entry) above

[3] = Pharmacogenomics: elagolix plasma concentrations by SLCO1B1 521T>C genotype; format: in vivo, human; conditions: SLCO1B1 521 C/C genotype
From the text: Hepatic uptake of elagolix involves the OATP1B1 transporter protein. Higher plasma concentrations of elagolix have been observed in patients who have two reduced function alleles of the gene that encodes OATP1B1 (SLCO1B1 521T>C) (these patients are likely to have reduced hepatic uptake of elagolix; and thus, higher plasma elagolix concentrations). The frequency of this SLCO1B1 521 C/C genotype is generally less than […] in most racial/ethnic groups. Women with this genotype are expected to have approximately 2-fold higher elagolix mean concentrations compared to women with normal transporter function (i.e., SLCO1B1 521T/T genotype). Adverse effects of elagolix have not been fully evaluated in subjects who have two reduced function alleles of the gene that encodes OATP1B1 (SLCO1B1 521T>C). The above listed examples should not be deemed to limit the scope of the invention as claimed.

CYP2B6 = assay: In vitro studies: CYP2B6 induction; format: in vitro ADME
CYP2C19 = CYP2C19 (Homo sapiens, UniProt P33261); assay: In vitro studies: CYP2C19 inhibition; format: in vitro ADME
Chain of CYP2C19 (P33261 whole entry): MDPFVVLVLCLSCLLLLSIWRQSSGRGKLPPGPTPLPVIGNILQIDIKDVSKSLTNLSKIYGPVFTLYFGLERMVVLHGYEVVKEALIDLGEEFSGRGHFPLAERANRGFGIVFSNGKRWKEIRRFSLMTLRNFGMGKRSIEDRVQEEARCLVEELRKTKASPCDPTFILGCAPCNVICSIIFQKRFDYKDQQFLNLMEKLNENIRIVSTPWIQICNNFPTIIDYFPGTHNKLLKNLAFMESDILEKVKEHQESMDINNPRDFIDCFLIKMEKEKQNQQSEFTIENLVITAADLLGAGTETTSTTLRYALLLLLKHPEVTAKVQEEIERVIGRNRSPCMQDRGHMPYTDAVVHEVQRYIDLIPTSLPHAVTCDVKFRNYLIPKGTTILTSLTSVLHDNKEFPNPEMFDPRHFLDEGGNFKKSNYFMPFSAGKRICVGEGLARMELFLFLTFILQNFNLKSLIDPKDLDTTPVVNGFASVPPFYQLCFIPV

CYP3A = assay: Substrate of / metabolism by CYP3A; format: in vitro ADME
[4] = Drug interaction studies: pharmacokinetics of elagolix in the presence of co-administered drugs; format: in vivo, human; conditions: for Ratio (90% CI) AUC of elagolix, co-administration vs elagolix alone / Ratio (90% CI) Cmax of elagolix, co-administration vs elagolix alone: elagolix 150 mg single dose
Experimental: Drug interaction studies were performed with elagolix and other drugs likely to be co-administered and with drugs commonly used as probes for pharmacokinetic interactions.

[5] = rabbits, highest, maternally toxic dose
[6] = lactation day 21, 100 mg/kg/day
[7] = lactation day 21, 300 mg/kg/day
[8] = Ketoconazole 400 mg once daily, N 11
[9] = Rifampin 600 mg single dose, N 12

COc1cccc(-c2c(C)n(Cc3c(F)cccc3C(F)(F)F)c(=O)n(C[C@H](NCCCC(=O)O)c3ccccc3)c2=O)c1F [elagolix, 4-((R)-2-[5-(2-fluoro-3-methoxy-phenyl)-3-(2-fluoro-6-trifluoromethyl-benzyl)-4-methyl-2,6-dioxo-3,6-dihydro-2H-pyrimidin-1-yl]-1-phenyl-ethylamino)-butyric acid]
binding to rat GnRH receptor relative to human GnRH receptor [1]: ~1000 fold less
P-gp inhibition (P-glycoprotein (P-gp)): inhibitor
CYP3A4 / CYP3A induction (CYP3A4): weak to moderate inducer
substrate of OATP1B1 (OATP1B1): substrate
dose with (increased) postimplantation loss, multiple of MRHD (pregnant rats; pregnant rats, oral, organogenesis, mid dose group, based on AUC): 12 times the MRHD
fetal malformations (pregnant rats; rat, any dose level tested): No fetal malformations
maternal deaths (pregnant rats; rats, 300, 600 and 1200 mg/kg/day): six deaths
fetal malformations (rabbits; rabbit, any dose level tested): No fetal malformations
dose with spontaneous abortion and total litter loss, multiple of MRHD (rabbits; rabbits, oral, organogenesis, highest, maternally toxic dose, based on AUC): 7 times the MRHD
total litter loss (rabbits; rabbits, 150 mg/kg/day, non-maternally toxic): single total litter loss
spontaneous abortions (rabbits; [5]): three spontaneous abortions
total litter loss (rabbits; [5]): single total litter loss
dose with total litter loss, multiple of MRHD (rabbits; rabbits, lower non-maternally toxic dose of 150 mg/kg/day): 4 times the MRHD
pup birth weights (rats; 300 mg/kg/day): lower birth weights
dams failing to deliver (rats; highest dose (300 mg/kg/day)): one failed to deliver
dams with total litter loss (rats; highest dose (300 mg/kg/day)): two dams
pup survival (rats; highest dose, birth to postnatal day 4): decreased
post-weaning growth, development and behavioral endpoints (rats; rat, in vivo): unaffected
maternal plasma concentration relative to maximal elagolix concentration (Cmax) in humans at the MRHD (rats; [6]): 0.04 fold
maternal plasma concentration relative to maximal elagolix concentration (Cmax) in humans at the MRHD (rats; [7]): 0.1 fold
concentration at 21 lactation day [2, 6]: 0.047 µg/mL
concentration at 21 lactation day [2, 7]: 0.125 µg/mL
substrate of P-gp (P-gp): substrate
plasma concentrations in patients with two reduced function alleles of SLCO1B1 521T>C [3]: Higher
elagolix mean concentrations vs women with normal transporter function (SLCO1B1 521T/T) ([3]; expected): approximately 2 fold higher
CYP2B6 induction (CYP2B6): weak to moderate inducer
CYP2C19 inhibition (CYP2C19): weak inhibitor
substrate of CYP3A (CYP3A): substrate
Ratio (90% CI) AUC of elagolix, co-administration vs elagolix alone [4, 8]: 2.20
Ratio (90% CI) Cmax of elagolix, co-administration vs elagolix alone [4, 8]: 1.77
Ratio (90% CI) AUC of elagolix, co-administration vs elagolix alone ([4]; Rifampin 600 mg once daily): 1.65
Ratio (90% CI) Cmax of elagolix, co-administration vs elagolix alone ([4]; Rifampin 600 mg once daily): 2.00
Ratio (90% CI) AUC of elagolix, co-administration vs elagolix alone [4, 9]: 5.58
Ratio (90% CI) Cmax of elagolix, co-administration vs elagolix alone [4, 9]: 4.37
plasma concentrations of elagolix with concomitant rifampin ([4]; concomitant use of rifampin): increased
changes in elagolix exposures ([4]; elagolix 300 mg twice daily with rosuvastatin (20 mg once daily), sertraline (25 mg once daily) or fluconazole (200 mg single dose)): No clinically significant changes
